Measured values from PubChem BioAssay AID2060609 (Molecular Pharmacology Branch, DTP, NCI, 2025).
“And” between values parts separate entries of the source, which are not always exact repeats. Equal values may be shown once.

Tested on: 855422-203-R-J1-PDC complex spheroids, viability
Assay: Anticancer human tumor 855422-203-R-J1-PDC patient-derived bladder carcinoma cell line growth inhibition [CLK]
Conditions: for viability, T/C: stronger effect = lower value
Method in brief: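 Patient-derived tumor cells grown as complex spheroids with HUVEC endothelial cells and mesenchymal stem cells, treated with drug combinations. Concentrations descend in half-log steps from near clinical Cmax, or from 10 microM if Cmax unknown.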

[1] = curve of first compound, second compound 0.0316 µM
[2] = curve of first compound, second compound 0.1 µM
[3] = curve of first compound, second compound 0.316 µM
[4] = curve of first compound, second compound 1 µM
[5] = curve of first compound, second compound 3.16 µM
[6] = curve of first compound, second compound 10 µM
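Further: spheroids exposed to drugs for seven days before readout.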
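Wherever viability, T/C is given: 100% = DMSO vehicle control wells.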

Molecule `CC(C)CC(NC(=O)C(Cc1ccccc1)NC(=O)c1cnccn1)B(O)O` (stereo unspecified) + CN1CCN(c2cc(C(=O)Nc3cc4cc(-c5cnn(C)c5)ccc4cn3)ccn2)CC1 has an IC50 [1] of less than 0.949 nM, an IC50 [2] of less than 0.949 nM and an IC50 [3] of less than 0.949 nM. The IC50 [4] was less than 0.949 nM, the IC50 [5] was less than 0.949 nM and the IC50 [6] was less than 0.949 nM. It also gave a viability, T/C (second compound 0.0316 µM, first compound 0.000949 µM) of 2.28%, a viability, T/C (second compound 0.0316 µM, first compound 0.003 µM) of 0.31% and a viability, T/C (second compound 0.0316 µM, first compound 0.00949 µM) of 0.27%. The viability, T/C (second compound 0.0316 µM, first compound 0.03 µM) was 0.43%, the viability, T/C (second compound 0.0316 µM, first compound 0.0949 µM) was 0.41% and the viability, T/C (second compound 0.0316 µM, first compound 0.3 µM) was 0.27%. For the same molecule, the viability, T/C (second compound 0.1 µM, first compound 0.000949 µM) was 2.61%, the viability, T/C (second compound 0.1 µM, first compound 0.003 µM) was 0.37% and the viability, T/C (second compound 0.1 µM, first compound 0.00949 µM) was 0.29%. It also gave a viability, T/C (second compound 0.1 µM, first compound 0.03 µM) of 0.43%, a viability, T/C (second compound 0.1 µM, first compound 0.0949 µM) of 0.35% and a viability, T/C (second compound 0.1 µM, first compound 0.3 µM) of 0.28%. It also gave a viability, T/C (second compound 0.316 µM, first compound 0.000949 µM) of 0.57%, a viability, T/C (second compound 0.316 µM, first compound 0.003 µM) of 0.22% and a viability, T/C (second compound 0.316 µM, first compound 0.00949 µM) of 0.27%. It also gave a viability, T/C (second compound 0.316 µM, first compound 0.03 µM) of 0.27%, a viability, T/C (second compound 0.316 µM, first compound 0.0949 µM) of 1.06% and a viability, T/C (second compound 0.316 µM, first compound 0.3 µM) of 0.19%. The viability, T/C (second compound 1 µM, first compound 0.000949 µM) was 0.21%, the viability, T/C (second compound 1 µM, first compound 0.003 µM) was 0.19% and the viability, T/C (second compound 1 µM, first compound 0.00949 µM) was 0.12%. It also gave a viability, T/C (second compound 1 µM, first compound 0.03 µM) of 0.19%, a viability, T/C (second compound 1 µM, first compound 0.0949 µM) of 0.16% and a viability, T/C (second compound 1 µM, first compound 0.3 µM) of 0.16%. For the same molecule, the viability, T/C (second compound 3.16 µM, first compound 0.000949 µM) was 0.36%, the viability, T/C (second compound 3.16 µM, first compound 0.003 µM) was 0.15% and the viability, T/C (second compound 3.16 µM, first compound 0.00949 µM) was 1.95%. The viability, T/C (second compound 3.16 µM, first compound 0.03 µM) was 0.11%, the viability, T/C (second compound 3.16 µM, first compound 0.0949 µM) was 0.78% and the viability, T/C (second compound 3.16 µM, first compound 0.3 µM) was 0.11%. The viability, T/C (second compound 10 µM, first compound 0.000949 µM) was 0.29%, the viability, T/C (second compound 10 µM, first compound 0.003 µM) was 0.19% and the viability, T/C (second compound 10 µM, first compound 0.00949 µM) was 2.1%. It also gave a viability, T/C (second compound 10 µM, first compound 0.03 µM) of 0.2%, a viability, T/C (second compound 10 µM, first compound 0.0949 µM) of 0.22% and a viability, T/C (second compound 10 µM, first compound 0.3 µM) of 0.32%.
With `CCCS(=O)(=O)Nc1ccc(F)c(C(=O)c2c[nH]c3ncc(-c4ccc(Cl)cc4)cc23)c1F` the viability, T/C (compound 0.0316 µM) was 101% and 114%, the viability, T/C (compound 0.1 µM) was 98.5% and 97.8% and the viability, T/C (compound 0.316 µM) was 112% and 118%. For the same molecule, the viability, T/C (compound 1 µM) was 107% and 111%, the viability, T/C (compound 3.16 µM) was 109% and 119% and the viability, T/C (compound 10 µM) was 3.67% and 1.89%. For the same molecule, the IC50 (curve of compound) was 5930 nM and 6040 nM.
`COC1C=CCC(C)C(C)S(=O)(=O)NC(=O)c2ccc3c(c2)N(CC2CCC21)CC1(CCCc2cc(Cl)ccc21)CO3` (stereo unspecified) + CNC(=O)c1ccc(Nc2nc(OC3CCCC3)c3c(-c4ccc5nc(C)oc5c4)c[nH]c3n2)c(OC)c1 showed an IC50 [1] of 7390 nM, an IC50 [2] greater than 10000 nM and an IC50 [3] of less than 31.6 nM. For the same molecule, the IC50 [4] was less than 31.6 nM, the IC50 [5] was less than 31.6 nM and the IC50 [6] was less than 31.6 nM. For the same molecule, the viability, T/C (second compound 0.0316 µM, first compound 0.0316 µM) was 96%, the viability, T/C (second compound 0.0316 µM, first compound 0.1 µM) was 105% and the viability, T/C (second compound 0.0316 µM, first compound 0.316 µM) was 122%. It also gave a viability, T/C (second compound 0.0316 µM, first compound 1 µM) of 132%, a viability, T/C (second compound 0.0316 µM, first compound 3.16 µM) of 151% and a viability, T/C (second compound 0.0316 µM, first compound 10 µM) of 24.7%. The viability, T/C (second compound 0.1 µM, first compound 0.0316 µM) was 53.6%, the viability, T/C (second compound 0.1 µM, first compound 0.1 µM) was 63.6% and the viability, T/C (second compound 0.1 µM, first compound 0.316 µM) was 54.1%. For the same molecule, the viability, T/C (second compound 0.1 µM, first compound 1 µM) was 77.3%, the viability, T/C (second compound 0.1 µM, first compound 3.16 µM) was 105% and the viability, T/C (second compound 0.1 µM, first compound 10 µM) was 33.3%. For the same molecule, the viability, T/C (second compound 0.316 µM, first compound 0.0316 µM) was 20%, the viability, T/C (second compound 0.316 µM, first compound 0.1 µM) was 23.7% and the viability, T/C (second compound 0.316 µM, first compound 0.316 µM) was 20.7%. It also gave a viability, T/C (second compound 0.316 µM, first compound 1 µM) of 17.2%, a viability, T/C (second compound 0.316 µM, first compound 3.16 µM) of 34.1% and a viability, T/C (second compound 0.316 µM, first compound 10 µM) of 22%. It also gave a viability, T/C (second compound 1 µM, first compound 0.0316 µM) of 19.8%, a viability, T/C (second compound 1 µM, first compound 0.1 µM) of 17.3% and a viability, T/C (second compound 1 µM, first compound 0.316 µM) of 18.2%. It also gave a viability, T/C (second compound 1 µM, first compound 1 µM) of 19.5%, a viability, T/C (second compound 1 µM, first compound 3.16 µM) of 21.9% and a viability, T/C (second compound 1 µM, first compound 10 µM) of 29%. The viability, T/C (second compound 3.16 µM, first compound 0.0316 µM) was 15.8%, the viability, T/C (second compound 3.16 µM, first compound 0.1 µM) was 18.1% and the viability, T/C (second compound 3.16 µM, first compound 0.316 µM) was 16.4%. The viability, T/C (second compound 3.16 µM, first compound 1 µM) was 15.1%, the viability, T/C (second compound 3.16 µM, first compound 3.16 µM) was 20.8% and the viability, T/C (second compound 3.16 µM, first compound 10 µM) was 23.3%. The viability, T/C (second compound 10 µM, first compound 0.0316 µM) was 17.7%, the viability, T/C (second compound 10 µM, first compound 0.1 µM) was 18.6% and the viability, T/C (second compound 10 µM, first compound 0.316 µM) was 17.9%. For the same molecule, the viability, T/C (second compound 10 µM, first compound 1 µM) was 17.4%, the viability, T/C (second compound 10 µM, first compound 3.16 µM) was 17.9% and the viability, T/C (second compound 10 µM, first compound 10 µM) was 23.3%.
